According to PubChem BioAssay (NCI):
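96-well plates; 48 h exposure; 5 concentrations. Endpoints by linear interpolation between flanking doses. Not reached: highest tested concentration assigned. Abbreviation: GI50, concentration required for 50% inhibition of growth. TGI: total growth inhibition.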

Experiments:
Experiment in all cases: NCI tumour cell line growth inhibition, 48 h
MDA-MB-231 breast = tested on: MDA-MB-231 breast
NCI/ADR-RES ovarian = tested on: NCI/ADR-RES ovarian
ACHN renal = tested on: ACHN renal
SK-MEL-2 melanoma = tested on: SK-MEL-2 melanoma
MOLT-4 leukemia = tested on: MOLT-4 leukemia
HCT-15 colon = tested on: HCT-15 colon
DU-145 prostate = tested on: DU-145 prostate
SK-MEL-28 melanoma = tested on: SK-MEL-28 melanoma
TK-10 renal = tested on: TK-10 renal
SW-620 colon = tested on: SW-620 colon
RXF 393 renal = tested on: RXF 393 renal
MCF7 breast = tested on: MCF7 breast
K-562 leukemia = tested on: K-562 leukemia
IGROV1 ovarian = tested on: IGROV1 ovarian
SF-295 CNS = tested on: SF-295 CNS
HOP-92 NSCLC = tested on: HOP-92 NSCLC
NCI-H522 lung = tested on: NCI-H522 lung
KM12 colon = tested on: KM12 colon
OVCAR-3 ovarian = tested on: OVCAR-3 ovarian
PC-3 prostate = tested on: PC-3 prostate
786-0 renal = tested on: 786-0 renal
SN12C renal = tested on: SN12C renal
HOP-62 NSCLC = tested on: HOP-62 NSCLC
OVCAR-5 ovarian = tested on: OVCAR-5 ovarian
HS 578T breast = tested on: HS 578T breast
UACC-257 melanoma = tested on: UACC-257 melanoma
UACC-62 melanoma = tested on: UACC-62 melanoma
NCI-H226 lung = tested on: NCI-H226 lung

With `O=C1c2ccccc2-c2c1c1ccc3ccccc3c1n2-c1ccccc1` the TGI (MDA-MB-231 breast) was 47.3 µM, the GI50 (NCI/ADR-RES ovarian) was 20.7 µM and the TGI (NCI/ADR-RES ovarian) was 58.5 µM. The GI50 (ACHN renal) was 20.5 µM, the TGI (ACHN renal) was 40.2 µM and the GI50 (SK-MEL-2 melanoma) was > 100 µM. The TGI (SK-MEL-2 melanoma) was > 100 µM, the GI50 (MOLT-4 leukemia) was > 100 µM and the TGI (MOLT-4 leukemia) was > 100 µM. The GI50 (HCT-15 colon) was > 100 µM, the TGI (HCT-15 colon) was > 100 µM and the GI50 (DU-145 prostate) was 39 µM. The TGI (DU-145 prostate) was > 100 µM, the GI50 (SK-MEL-28 melanoma) was > 100 µM and the TGI (SK-MEL-28 melanoma) was > 100 µM. For the same compound, the GI50 (TK-10 renal) was 20.6 µM, the TGI (TK-10 renal) was 44.7 µM and the GI50 (SW-620 colon) was 59.5 µM. For the same compound, the TGI (SW-620 colon) was > 100 µM, the GI50 (RXF 393 renal) was 18.9 µM and the TGI (RXF 393 renal) was 52.1 µM. The GI50 (MCF7 breast) was 15.6 µM, the TGI (MCF7 breast) was > 100 µM and the GI50 (K-562 leukemia) was > 100 µM. For the same compound, the TGI (K-562 leukemia) was > 100 µM, the GI50 (IGROV1 ovarian) was 29.7 µM and the TGI (IGROV1 ovarian) was > 100 µM. The GI50 (SF-295 CNS) was 22.9 µM, the TGI (SF-295 CNS) was 67.4 µM and the GI50 (HOP-92 NSCLC) was 16 µM. For the same compound, the TGI (HOP-92 NSCLC) was 52.1 µM, the GI50 (NCI-H522 lung) was 53.1 µM and the TGI (NCI-H522 lung) was > 100 µM. The GI50 (KM12 colon) was 21.3 µM, the TGI (KM12 colon) was > 100 µM and the GI50 (OVCAR-3 ovarian) was 24.6 µM. For the same compound, the TGI (OVCAR-3 ovarian) was 57.6 µM, the GI50 (PC-3 prostate) was 35.7 µM and the TGI (PC-3 prostate) was > 100 µM. The GI50 (786-0 renal) was 25.3 µM, the TGI (786-0 renal) was 53.9 µM and the GI50 (SN12C renal) was 20.5 µM. The TGI (SN12C renal) was 50 µM, the GI50 (HOP-62 NSCLC) was 25.1 µM and the TGI (HOP-62 NSCLC) was 58.7 µM. For the same compound, the GI50 (OVCAR-5 ovarian) was 29.2 µM, the TGI (OVCAR-5 ovarian) was > 100 µM and the GI50 (HS 578T breast) was 18 µM. For the same compound, the TGI (HS 578T breast) was 39.2 µM, the GI50 (UACC-257 melanoma) was 64.8 µM and the TGI (UACC-257 melanoma) was > 100 µM. The GI50 (UACC-62 melanoma) was 20.4 µM, the TGI (UACC-62 melanoma) was 44.2 µM and the GI50 (NCI-H226 lung) was 27.9 µM. The TGI (NCI-H226 lung) was 75.2 µM.
